Laboratory results taken from patent US20260021114A1, “COMPOSITION FOR LOWERING BLOOD LIPIDS AND CHOLESTEROL, PREPARATION METHOD THEREFOR, AND APPLICATION THEREOF” (Health and Happiness (H&H) Hong Kong Limited, priority 2022, published 2026).
Marks after values point to notes of the source that are not given here.

Columns and labels:
[1] = system: zebrafish hyperlipidemia model; test: Efficacy evaluation of lowering cholesterol (cholesterol fluorescent probe, tail blood vessels); format: in vivo
Experimental: 5 dpf melanin allele mutant translucent Albino strain zebrafish were randomly selected and put in beakers, with 30 fish per beaker. The atorvastatin calcium and samples (see Table 4 for final concentration) were administered by dissolving in water respectively, and the normal control group and the model control group were set at the same time, and the volume of each beaker was 25 mL. Except for the normal control group, all other experimental groups were given high-fat feed in water (the high-fat feed was glucose with a final concentration of 3wt % and egg yolk powder with a final concentration of 1.5 mg/mL) to establish a zebrafish hyperlipidemia model. The samples were co-processed with high-fat feed for 15 hours (co-processed for 7.5 hours per day and kept in fish farming water at 28° C. for the rest of the day). After treatment at 28° C. for 32 hours, cholesterol fluorescent probe (final concentration 1 mg/mL) was administered. After continuing the treatment for 16 hours, 10 zebrafish from each experimental group were randomly selected and photographed under a fluorescence microscope. […] The cholesterol fluorescence intensity of the zebrafish tail blood vessels was analyzed, and the efficacy lowering cholesterol of the samples was evaluated by the statistical analysis results of this index. Statistical processing results are expressed as mean±SE. […]

[2] = system: zebrafish hyperlipidemia model; test: Efficacy evaluation of lowering triglyceride (Oil Red O staining of tail blood vessels); format: in vivo
Experimental: 5 dpf melanin allele mutant translucent Albino strain zebrafish were randomly selected and put in beakers, with 30 fish per beaker. The atorvastatin calcium and samples (see Table 3 for final concentration) were administered by dissolving in water respectively, and the normal control group and the model control group were set at the same time, and the volume of each beaker was 25 mL. Except for the normal control group, all other experimental groups were given high-fat feed in water (the high-fat feed was glucose with a final concentration of 3wt % and egg yolk powder with a final concentration of 1.5 mg/mL) to establish a zebrafish hyperlipidemia model. The samples were co-processed with high-fat feed for 15 hours (co-processed for 7.5 hours per day and kept in fish farming water at 28° C. for the rest of the day). After treatment at 28° C. for 48 hours, Oil Red O was given for whole-body fat staining. After the staining, 10 zebrafish from each experimental group were randomly selected and photographed under a dissection microscope. […] The staining intensity of the zebrafish tail blood vessels was analyzed, and the efficacy of atorvastatin calcium and sample in lowering triglycerides was evaluated based on the statistical analysis results of this indicator. Statistical processing results are expressed as mean +SE. […]

hmgcra gene = test: Effect on the hmgcra gene expression levels (q-PCR); format: in vivo, zebrafish
Experimental: 5 dpf melanin allele mutant translucent Albino strain zebrafish were randomly selected and put in beakers, with 30 fish per beaker. The atorvastatin calcium and samples (see Table 7 for final concentration) were administered by dissolving in water respectively, and the normal control group and the model control group were set at the same time, and the volume of each beaker was 25 mL. Except for the normal control group, all other experimental groups were given high-fat feed in water (the high-fat feed was glucose with a final concentration of 3 wt % and egg yolk powder with a final concentration of 1.5 mg/mL) to establish a zebrafish hyperlipidemia model. The samples were co-processed with high-fat feed for 15 hours (co-processed for 7.5 hours per day). After treatment at 28° C. for 48 hours, total RNA of 2.00 μg zebrafish sample was taken, and 20.0 μL cDNA was synthesized according to the instructions of the cDNA first chain synthesis kit. The expression of β-actin and hmgcra genes was detected by q-PCR (see Table 6 for the sequence of primers). The RNA phase of hmgcra gene was calculated using […] as the internal reference of gene expression. Statistical processing results are expressed as mean +SE. Statistical analysis was performed with SPSS26.0 software, p<0.05 indicated a statistically significant difference.

model zebrafish = test: MTC determination in zebrafish hyperlipidemia model; format: in vivo
Experimental: 5 dpf melanin allele mutant translucent Albino strain zebrafish were randomly selected and put in beakers, with 30 fish per beaker (experimental group). The atorvastatin calcium and samples (see Table 2 for final concentration) were administered by dissolving in water respectively, and the normal control group and the model control group were set at the same time, and the volume of each beaker was 25 mL. Except for the normal control group, all other experimental groups were given high-fat feed in water (the high-fat feed was glucose with a final concentration of 3 wt % and egg yolk powder with a final concentration of 1.5 mg/mL) to establish a zebrafish hyperlipidemia model. The samples were co-processed with high-fat feed for 15 hours (co-processed for 7.5 hours per day and kept in fish farming water at 28° C. for the rest of the day). During sample processing, the number of dead zebrafish in each experimental group was counted every day and removed in time. After treatment at 28° C. for 48 hours, the minimum toxic concentration (MTC) of atorvastatin calcium and samples to model zebrafish was determined.

CC(C)c1c(C(=O)Nc2ccccc2)c(-c2ccccc2)c(-c2ccc(F)cc2)n1CC[C@@H](O)C[C@@H](O)CC(=O)[O-].CC(C)c1c(C(=O)Nc2ccccc2)c(-c2ccccc2)c(-c2ccc(F)cc2)n1CC[C@@H](O)C[C@@H](O)CC(=O)[O-].[Ca+2] [Atorvastatin calcium]
Cholesterol content (Unit in pixels, mean ± SE) ([1]; 11.6 μg/mL, 48 hours, tail blood vessels cholesterol fluorescence intensity): 122765 ± 11371 pixels
lowering of cholesterol compared with the model control group (in words) ([1]; P<0.05 vs model control group): significantly lower cholesterol
Triglyceride content (Unit in pixels, mean ± SE) ([2]; 11.6 μg/mL, 48 hours, tail blood vessels staining intensity): 11104 ± 588***^c pixels
lowering of triglycerides compared with the model control group (in words) ([2]; P<0.05 vs model control group): significantly lower triglycerides
Relative expression of hmgcra gene (mean ± SE) (hmgcra gene; 11.6 μg/mL, 48 hours, β-actin internal reference, model control = 1): 0.542 ± 0.003***^a
reduction of hmgcra gene expression levels compared with the model control group (in words) (hmgcra gene; P<0.05 vs model control group): significantly reduce the hmgcra gene expression levels
Death rates (%) (model zebrafish; 11.6 μg/mL, n = 30, 48 hours): 0%
Number of deaths (fish) (model zebrafish; 11.6 μg/mL, n = 30, 48 hours): 0 fish
MTC (model zebrafish; model zebrafish, high-fat feed, 28° C. for 48 hours): 11.6 µg/mL
